{"source": "patent US6586596B2", "about": "“Acetylcholine enhancers” (priority 1998, dated 2003)", "key": {"[1]": {"system": "cycloheximide-induced amnesia", "assay": "Passive avoidance, cycloheximide-induced memory impairment", "format": "in vivo, male Wistar rats", "settings": "oral, 30 minutes before acquisition trial; cycloheximide 1.5 mg/kg s.q.", "procedure": "(§1) Cutoff latency was set at 600 seconds.\nRats were treated s.q. with cycloheximide (1.5 mg/kg), a protein synthesis inhibitor, immediately after the electric shock."}, "[2]": {"target": "T1, peripheral 5-HT3 receptor (Rattus norvegicus, UniProt P35563)", "T1 construct": "from tissue; host or cells: whole anesthetized rat (peripheral receptors)", "T1 sequence (P35563 24-483)": "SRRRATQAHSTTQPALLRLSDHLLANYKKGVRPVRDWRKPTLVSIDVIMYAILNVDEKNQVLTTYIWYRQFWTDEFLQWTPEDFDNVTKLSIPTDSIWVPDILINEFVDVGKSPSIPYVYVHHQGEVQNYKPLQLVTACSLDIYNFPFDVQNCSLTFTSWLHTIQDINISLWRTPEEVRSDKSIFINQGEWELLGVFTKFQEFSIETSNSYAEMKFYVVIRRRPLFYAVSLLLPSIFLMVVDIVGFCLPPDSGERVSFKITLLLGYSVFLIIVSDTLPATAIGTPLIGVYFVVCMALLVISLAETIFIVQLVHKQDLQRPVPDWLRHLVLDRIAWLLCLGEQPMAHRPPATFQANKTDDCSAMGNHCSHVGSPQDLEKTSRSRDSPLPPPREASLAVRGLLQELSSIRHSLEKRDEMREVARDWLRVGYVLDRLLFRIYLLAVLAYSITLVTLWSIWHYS", "assay": "5-HT-evoked von Bezold-Jarish Effect (B.J.E.) in anesthetized rats", "format": "in vivo", "settings": "Cm.A 3 to 10 mg/kg", "procedure": "A bolus i.v. injection of serotonin (5-HT) (20 μg/kg) caused reflex bradycardia transiently (von Bezold—Jarish Effect: B.J.E.) via activation of peripheral 5-HT3 receptor in anesthetized rats."}, "[3]": {"system": "scopolamine-induced amnesia", "assay": "Passive avoidance, scopolamine-induced memory impairment", "format": "in vivo, male Wistar rats", "settings": "0.1, 0.3 and 3.0 mg/kg oral, 30 minutes before acquisition trial; scopolamine 0.5 mg/kg i.p.", "procedure": "as §1\nRats were treated i.p. with scopolamine (0.5 mg/kg) 15 minutes before the acquisition trial."}, "aged rats (22 month-old)": {"system": "aged rats (22 month-old)", "assay": "Water maze, aged rats", "format": "in vivo, male Fischer 344 rats", "source_text": "As compared with young rats, aged rats (22 month-old) were unable shorten the escape latency period. Even after the 11th trial, only a partial decrease in the latency period was evident in the aged rats."}, "SEP-lesioned rats": {"system": "SEP-lesioned rats", "assay": "Eight-arm radial maze, medial septal nucleus (SEP) lesion-induced deficit", "format": "in vivo, male Wistar rats", "settings": "3.0 mg/kg/day, repeated treatment for 2 weeks", "procedure": "(§2) Using male Wistar rats, the anti-amnestic effects of Cm.A on spatial cognition was evaluated using an eight-arm radial maze task. After repeated trials for spatial cognition, memory-established rats (which had more than 7 correct choices and less than one error) were utilized.\nSEP (Bregma, A: 0.2 mm, L: −1.0 mm, H: −5.8 mm) was lesioned by microinjection with ibotenic acid (10 μg) similarly to that of the BF lesion of Example 4A(3)."}, "[4]": {"system": "scopolamine-induced spatial memory deficit", "assay": "Eight-arm radial maze, scopolamine-induced deficit in spatial memory", "format": "in vivo, male Wistar rats", "settings": "oral dose 0.03~0.3 mg/kg; scopolamine 0.5 mg/kg i.p.", "procedure": "as §2"}, "healthy volunteers": {"system": "healthy volunteers", "assay": "Human Phase IA single-dose, dose-escalation clinical trial", "format": "in vivo", "settings": "single oral dose 2 mg to 180 mg", "procedure": "A Phase IA clinical trial was conducted as a single-dose, double-blind, placebo-controlled, dose-escalation study. This study investigated the safety and pharmacokinetic profile of the particularly preferred salt (depicted in FIG. 1B; N-[2-( 1-benzylpiperizin-4-yl)ethyl]-2,3-dihydro-9-methoxy-1H-pyrrolo[3,4-b]quinolin-1-one hemifumarate) of the compound of FIG. 1A, N-[2-(1-benzylpiperzin-4-yl)ethyl]-2,3-dihydro-9-methoxy-1H-pyrrolo[3,4-b] quinolin-1-one. The compound was administered orally in doses from 2 mg to 180 mg to healthy volunteers (male and female), aged 50-75 years, under fasting conditions. A total of 68 individuals were enrolled in the study and completed the trial. A maximum tolerated dose was not identified in this study, i. e., even at 180 mg, there were insufficient adverse events to establish a true “maximum tolerated dose” in this study."}, "[5]": {"system": "extracellular levels of ACh in hippocampus", "assay": "ACh release in hippocampus, microdialysis in freely moving rats", "format": "in vivo", "settings": "for ACh content in perfusate increased: hippocampus", "procedure": "ACh content in perfusate obtained from hippocampus (Bregma, A: −5.8 mm, L: 5.0 mm, H: 4.0 mm) of brain were continuously detected by means of HPLC and ECD through the microdialysis system using freely moving rats (See Messamore and Kawashima, supra). After an equilibration period, five fractions were allowed to obtain basal ACh content. Test substances were injected i.p., and thereafter, microdialytic analysis was conducted for 3 hr."}, "AChE": {"target": "T2, AChE (Rattus norvegicus, UniProt P37136)", "T2 construct": "from tissue; host or cells: rat brain (hippocampus, striatum, frontal cortex, parietal cortex)", "T2 sequence (P37136 32-614)": "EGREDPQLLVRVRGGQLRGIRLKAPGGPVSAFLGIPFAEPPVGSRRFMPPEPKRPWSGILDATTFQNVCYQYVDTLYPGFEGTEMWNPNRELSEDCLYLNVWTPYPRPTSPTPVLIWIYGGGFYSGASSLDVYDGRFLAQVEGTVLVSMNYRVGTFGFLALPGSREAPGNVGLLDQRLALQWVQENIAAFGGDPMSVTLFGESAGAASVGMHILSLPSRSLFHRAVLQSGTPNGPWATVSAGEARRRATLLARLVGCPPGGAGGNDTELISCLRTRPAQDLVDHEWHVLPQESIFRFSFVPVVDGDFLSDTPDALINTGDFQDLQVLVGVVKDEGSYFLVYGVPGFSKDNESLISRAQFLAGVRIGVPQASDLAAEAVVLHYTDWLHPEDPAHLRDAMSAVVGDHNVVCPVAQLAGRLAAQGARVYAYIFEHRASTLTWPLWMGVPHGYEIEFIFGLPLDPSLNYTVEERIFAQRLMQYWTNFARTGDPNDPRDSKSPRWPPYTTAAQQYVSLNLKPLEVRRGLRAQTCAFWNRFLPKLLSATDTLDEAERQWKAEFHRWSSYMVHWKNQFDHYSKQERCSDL", "format": "in vivo", "settings": "1 hour after dosing", "procedure": "After 1 hour, rats were sacrificed and brains were isolated and divided into several portions. AChE activity in preparations from hippocampus, striatum, frontal cortex and parietal cortex was determined by Ellman's method."}}, "note": "Read-outs that look alike come from different tables or passages of the source.", "data": [{"smiles": "COc1c2c(nc3ccccc13)CN(CCC1CCN(Cc3ccccc3)CC1)C2=O", "note": "[Cm.A, 2-[2-(1-benzylpiperizin-4-yl)ethyl]-2,3-dihydro-9-methoxy-1H-pyrrolo[3,4-b]quinolin-1-one hemifumarate]", "values": [{"measurement": "latency in retention trial, cycloheximide-induced amnesia", "setting": "[1]", "result": "prolonged the shortened latency induced by cycloheximide in a nondose dependent manner"}, {"measurement": "inhibition of 5-HT-evoked B.J.E. (reflex bradycardia)", "setting": "[2]; i.v. pretreatment, E2020 0.1~1 mg/kg, 5-HT 20 μg/kg i.v.", "result": "inhibited B.J.E. dose dependently"}, {"measurement": "blood pressure, heart rate and other signs", "setting": "[2]; i.v., THA 10 mg/kg, E2020 higher than 1 mg/kg, data not shown", "result": "without any change on blood pressure and heart rate"}, {"measurement": "latency in retention trial, reversal of scopolamine effect", "setting": "[3]", "result": "significantly reversed the effect of scopolamine"}, {"measurement": "deficit of spatial learning (escape latency)", "setting": "aged rats (22 month-old)", "result": "gradually improved the deficit of spatial learning to a level nearly equivalent to young rats"}, {"measurement": "deficit of spatial memory", "setting": "SEP-lesioned rats", "result": "significantly improved the deficit of spatial memory"}, {"measurement": "deficit of spatial cognition (correct choices, errors)", "setting": "[4]", "result": "significantly improved the deficit of spatial cognition"}, {"measurement": "safety parameters (vital signs, ECG, blood chemistry, hematology, urinalysis, physical examination)", "setting": "healthy volunteers", "result": "no clinically significant changes"}, {"measurement": "serious adverse events", "setting": "healthy volunteers", "result": "no serious adverse events reported"}, {"measurement": "maximum tolerated dose", "setting": "healthy volunteers; fasting, aged 50-75 years", "result": "> 180", "unit": "mg"}, {"measurement": "mild adverse events", "setting": "healthy volunteers; 68 individuals enrolled", "result": "seven mild adverse events"}, {"measurement": "centrally acting cholinergic symptoms (tremor, chewing and yawning)", "setting": "[5]; hippocampus study, i.p., data not shown", "result": "Few centrally acting cholinergic symptoms"}, {"measurement": "ACh content in perfusate increased", "setting": "[5]; 10 mg/kg i.p.", "result": 164, "unit": "%"}, {"measurement": "ACh content in perfusate increased", "setting": "[5]; 30 mg/kg i.p.", "result": 552, "unit": "%"}, {"measurement": "AChE activity Frontal cortex", "setting": "AChE; 1 mg/kg p.o.", "result": 48.1, "unit": "nmol/min/mg protein"}, {"measurement": "AChE activity Hippocampus", "setting": "AChE; 1 mg/kg p.o.", "result": "37.6 ± 0.8", "unit": "nmol/min/mg protein"}, {"measurement": "AChE activity Parietal cortex", "setting": "AChE; 1 mg/kg p.o.", "result": "27.3 ± 0.5", "unit": "nmol/min/mg protein"}, {"measurement": "AChE activity Striatim", "setting": "AChE; 1 mg/kg p.o.", "result": 238.9, "unit": "nmol/min/mg protein"}, {"measurement": "AChE activity Frontal cortex", "setting": "AChE; 3 mg/kg p.o.", "result": 56, "unit": "nmol/min/mg protein"}, {"measurement": "AChE activity Hippocampus", "setting": "AChE; 3 mg/kg p.o.", "result": "42.1 ± 1.3", "unit": "nmol/min/mg protein"}, {"measurement": "AChE activity Parietal cortex", "setting": "AChE; 3 mg/kg p.o.", "result": "31.3 ± 1.6", "unit": "nmol/min/mg protein"}, {"measurement": "AChE activity Striatim", "setting": "AChE; 3 mg/kg p.o.", "result": 219.9, "unit": "nmol/min/mg protein"}, {"measurement": "AChE activity Frontal cortex", "setting": "AChE; 10 mg/kg p.o.", "result": 58.4, "unit": "nmol/min/mg protein"}, {"measurement": "AChE activity Hippocampus", "setting": "AChE; 10 mg/kg p.o.", "result": "48.3 ± 2.9", "unit": "nmol/min/mg protein"}, {"measurement": "AChE activity Parietal cortex", "setting": "AChE; 10 mg/kg p.o.", "result": "32.6 ± 1.7", "unit": "nmol/min/mg protein"}, {"measurement": "AChE activity Striatim", "setting": "AChE; 10 mg/kg p.o.", "result": 274.0, "unit": "nmol/min/mg protein"}, {"measurement": "inhibition of AChE activity (text on Table 3)", "setting": "AChE; p.o.", "result": "inhibition of AChE in a nondose dependent manner"}]}]}
